In experiment [1] the target is T1, Ser83Phe mutant S. Typhimurium DNA gyrase (Salmonella typhimurium, UniProt P0A2I3+P37411, S83F).
T1 construct: made in house; host or cells: Escherichia coli BL21(DE3)
In words: Fluoroquinolone-inhibited DNA supercoiling assay, GyrA Ser83Phe DNA gyrase. The conditions noted are these: read-out: IC50s ± SD, Ser83Phe (converted). It counts as biochemical. An excerpt:
(§1) Recombinant DNA gyrase was obtained as separate subunits, GyrA and GyrB. In total, plasmids encoding nine subunits including WT GyrA and GyrB as well as seven GyrA with amino acid substitutions (Ser83Phe, Ser83Ile, Ser83Tyr, Asp87Gly, Asp87Asn, Asp87Tyr, and […]) in the quinolone resistance determining region were constructed as described in our previous study ([38]). These plasmids were introduced into Escherichia coli BL21(DE3) (Merck KGaA, Darmstadt, Germany), and protein expression was induced in the bacterial cells. A transformed E. coli was inoculated into Luria-Bertani broth supplemented with ampicillin (50 mg/L) and incubated at 37°C until the optical density value reached 0.60. Expression of GyrA and GyrB was induced by adding 1 mM isopropyl beta-D-1-thiogalactopyranoside (Wako Pure Chemical Industries Ltd, Osaka, Japan) followed by incubation at 16°C for 40 h (for GyrA), or 18°C for 13 h (for GyrB). To release the expressed protein, E. coli cells were harvested by centrifugation, suspended in a native binding buffer containing complete mini EDTA-free (Roche Applied Science, Mannheim, Germany), and then sonicated at a 30% duty cycle with 10 cycles of 40 s on and 40 s off (Sonifier 250; Branson, Danbury, CT). The recombinant DNA gyrase subunits were purified by column chromatography using Ni-NTA agarose resin (Thermo Fisher Scientific, Inc., Waltham, MA) and dialyzed against DNA gyrase dilution buffer [50 mM Tris-HCl, pH 7.5; 100 mM KCl, 2 mM dithiothreitol (DTT), 1 mM EDTA]. […] The protein purity was assessed by sodium dodecyl sulfate-polyacrylamide gel electrophoresis (SDS-PAGE) (ATTO, Tokyo, Japan) as shown in Fig. 7.
(§2) The reaction mixture was incubated at 37°C for 60 min and then the reaction was halted by adding 8 µL of stop solution (5% SDS, 25% glycerol, and 0.25 mg/mL of bromophenol blue) ([45]). […] The amount of supercoiled DNA was quantified by its intensity using ImageJ, the digital image processing software (https://imagej.nih.gov/ij/download.html).

The test system of another experiment is S. Enteritidis NBRC 3313. In words: microbe, parasite or virus in culture. The experiment is classed as cell-based, Salmonella Enteritidis. The conditions noted are these: micro-broth dilution, 37°C, 16 h; for MIC: Salmonella enterica, read-out: MIC ± SD, S. Enteritidis. The procedure:
(§3) A suspension containing approximately 5 × 10^5 CFU/mL of each Salmonella strain was transferred into 96-well plate containing serially diluted fluoroquinolones and incubated at 37°C for 16 h.
(Broth dilution looks for growth in wells or tubes with falling amounts of substance.)

The target of experiment [2] is T2, Asp87Asn mutant S. Typhimurium DNA gyrase (Salmonella typhimurium, UniProt P0A2I3+P37411, D87N).
T2 construct: made in house; host or cells: Escherichia coli BL21(DE3)
T2 sequence (P37411 whole entry D87N, one chain of several): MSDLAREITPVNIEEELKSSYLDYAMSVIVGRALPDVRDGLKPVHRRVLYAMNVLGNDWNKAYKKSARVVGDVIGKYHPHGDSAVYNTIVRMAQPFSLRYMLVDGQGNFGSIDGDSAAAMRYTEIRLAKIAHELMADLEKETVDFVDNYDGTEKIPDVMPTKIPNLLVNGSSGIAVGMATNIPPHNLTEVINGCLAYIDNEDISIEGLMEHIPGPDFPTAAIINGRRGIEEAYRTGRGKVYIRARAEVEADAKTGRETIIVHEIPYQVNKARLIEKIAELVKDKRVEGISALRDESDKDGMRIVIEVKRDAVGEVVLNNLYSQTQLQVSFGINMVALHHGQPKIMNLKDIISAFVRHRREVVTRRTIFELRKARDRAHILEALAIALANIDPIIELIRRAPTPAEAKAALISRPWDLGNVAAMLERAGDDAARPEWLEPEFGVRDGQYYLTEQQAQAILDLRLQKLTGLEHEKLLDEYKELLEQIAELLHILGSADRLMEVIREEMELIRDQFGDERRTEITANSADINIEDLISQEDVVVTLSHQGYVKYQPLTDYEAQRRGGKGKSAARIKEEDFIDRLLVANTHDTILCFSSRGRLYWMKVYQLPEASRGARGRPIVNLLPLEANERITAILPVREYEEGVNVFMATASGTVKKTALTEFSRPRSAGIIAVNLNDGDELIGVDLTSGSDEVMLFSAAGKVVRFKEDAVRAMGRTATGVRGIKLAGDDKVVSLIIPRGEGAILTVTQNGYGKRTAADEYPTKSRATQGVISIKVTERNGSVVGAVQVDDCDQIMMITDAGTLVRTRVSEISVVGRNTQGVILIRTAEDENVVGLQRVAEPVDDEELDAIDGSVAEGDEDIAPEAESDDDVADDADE
Kind of experiment: Fluoroquinolone-inhibited DNA supercoiling assay, GyrA Asp87Asn DNA gyrase. It counts as biochemical. The conditions noted are these: read-out: IC50s ± SD, Ap87Asn (converted).
Text: as §1, §2

The target in experiment [3] is T3, Asp87Tyr mutant S. Typhimurium DNA gyrase (Salmonella typhimurium, UniProt P0A2I3+P37411, D87Y).
T3 construct: made in house; host or cells: Escherichia coli BL21(DE3)
T3 sequence (P37411 whole entry D87Y, one chain of several): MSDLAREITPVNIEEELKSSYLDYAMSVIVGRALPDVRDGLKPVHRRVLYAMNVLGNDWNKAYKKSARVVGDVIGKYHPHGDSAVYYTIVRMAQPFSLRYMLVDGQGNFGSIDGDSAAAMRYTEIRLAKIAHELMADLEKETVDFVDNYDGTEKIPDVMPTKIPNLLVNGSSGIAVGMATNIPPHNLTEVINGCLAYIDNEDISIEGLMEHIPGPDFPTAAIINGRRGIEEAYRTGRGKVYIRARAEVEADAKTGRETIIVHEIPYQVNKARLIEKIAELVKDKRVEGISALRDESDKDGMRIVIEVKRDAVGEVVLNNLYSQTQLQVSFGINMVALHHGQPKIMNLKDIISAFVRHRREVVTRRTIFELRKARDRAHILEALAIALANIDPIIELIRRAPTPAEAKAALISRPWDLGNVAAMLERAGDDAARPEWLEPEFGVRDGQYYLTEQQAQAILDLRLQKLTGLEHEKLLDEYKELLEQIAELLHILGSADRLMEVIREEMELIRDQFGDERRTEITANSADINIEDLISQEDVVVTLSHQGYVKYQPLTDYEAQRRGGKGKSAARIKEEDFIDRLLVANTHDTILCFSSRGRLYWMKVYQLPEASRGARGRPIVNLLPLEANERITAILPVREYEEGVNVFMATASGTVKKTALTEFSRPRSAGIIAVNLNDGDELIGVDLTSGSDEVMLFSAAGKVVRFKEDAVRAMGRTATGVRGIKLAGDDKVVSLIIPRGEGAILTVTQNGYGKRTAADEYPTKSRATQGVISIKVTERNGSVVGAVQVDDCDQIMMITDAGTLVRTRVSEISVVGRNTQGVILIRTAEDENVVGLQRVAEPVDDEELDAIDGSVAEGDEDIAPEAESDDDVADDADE
In words: Fluoroquinolone-inhibited DNA supercoiling assay, GyrA Asp87Tyr DNA gyrase. It counts as biochemical.
Text: as §1, §2

Experiment [4] relates to S. Typhimurium NBRC 13245. Kind of experiment: microbe, parasite or virus in culture. It counts as cell-based, Salmonella Typhimurium. The conditions noted are these: micro-broth dilution, 37°C, 16 h; for MIC: Salmonella enterica, read-out: MIC ± SD, S. Typhimurium. The method, then:
as §3

For experiment [5], the target named is T4, Ser83Tyr mutant S. Typhimurium DNA gyrase (Salmonella typhimurium, UniProt P0A2I3+P37411, S83Y).
T4 construct: made in house; host or cells: Escherichia coli BL21(DE3)
In words: Fluoroquinolone-inhibited DNA supercoiling assay, GyrA Ser83Tyr DNA gyrase. The experiment is classed as biochemical. The conditions noted are these: read-out: IC50s ± SD, Ser83Tyr (converted).
Text: as §1, §2

In experiment [6] the target is T5, Ser83Ile mutant S. Typhimurium DNA gyrase (Salmonella typhimurium, UniProt P0A2I3+P37411, S83I).
T5 construct: made in house; host or cells: Escherichia coli BL21(DE3)
In words: Fluoroquinolone-inhibited DNA supercoiling assay, GyrA Ser83Ile DNA gyrase. The conditions noted are these: read-out: IC50s ± SD, Ser83Ile (converted). The experiment is classed as biochemical.
Text: as §1, §2

The target of experiment [7] is T6, Asp87Gly mutant S. Typhimurium DNA gyrase (Salmonella typhimurium, UniProt P0A2I3+P37411, D87G).
T6 construct: made in house; host or cells: Escherichia coli BL21(DE3)
In words: Fluoroquinolone-inhibited DNA supercoiling assay, GyrA Asp87Gly DNA gyrase. It counts as biochemical.
Text: as §1, §2

Experiment [8] addresses T7, WT S. Typhimurium DNA gyrase (Salmonella typhimurium, UniProt P0A2I3+P37411).
T7 construct: made in house; host or cells: Escherichia coli BL21(DE3)
In words: Fluoroquinolone-inhibited DNA supercoiling assay, WT DNA gyrase. The conditions noted are these: read-out: IC50s ± SD, WT (converted). It counts as biochemical.
Text: as §1, §2

Experiment [9] deals with T8, Ser83Phe-Asp87Asn double-mutant S. Typhimurium DNA gyrase (Salmonella typhimurium, UniProt P0A2I3+P37411, D87N/S83F).
T8 construct: made in house; host or cells: Escherichia coli BL21(DE3)
T8 sequence (P37411 whole entry S83F/D87N, one chain of several): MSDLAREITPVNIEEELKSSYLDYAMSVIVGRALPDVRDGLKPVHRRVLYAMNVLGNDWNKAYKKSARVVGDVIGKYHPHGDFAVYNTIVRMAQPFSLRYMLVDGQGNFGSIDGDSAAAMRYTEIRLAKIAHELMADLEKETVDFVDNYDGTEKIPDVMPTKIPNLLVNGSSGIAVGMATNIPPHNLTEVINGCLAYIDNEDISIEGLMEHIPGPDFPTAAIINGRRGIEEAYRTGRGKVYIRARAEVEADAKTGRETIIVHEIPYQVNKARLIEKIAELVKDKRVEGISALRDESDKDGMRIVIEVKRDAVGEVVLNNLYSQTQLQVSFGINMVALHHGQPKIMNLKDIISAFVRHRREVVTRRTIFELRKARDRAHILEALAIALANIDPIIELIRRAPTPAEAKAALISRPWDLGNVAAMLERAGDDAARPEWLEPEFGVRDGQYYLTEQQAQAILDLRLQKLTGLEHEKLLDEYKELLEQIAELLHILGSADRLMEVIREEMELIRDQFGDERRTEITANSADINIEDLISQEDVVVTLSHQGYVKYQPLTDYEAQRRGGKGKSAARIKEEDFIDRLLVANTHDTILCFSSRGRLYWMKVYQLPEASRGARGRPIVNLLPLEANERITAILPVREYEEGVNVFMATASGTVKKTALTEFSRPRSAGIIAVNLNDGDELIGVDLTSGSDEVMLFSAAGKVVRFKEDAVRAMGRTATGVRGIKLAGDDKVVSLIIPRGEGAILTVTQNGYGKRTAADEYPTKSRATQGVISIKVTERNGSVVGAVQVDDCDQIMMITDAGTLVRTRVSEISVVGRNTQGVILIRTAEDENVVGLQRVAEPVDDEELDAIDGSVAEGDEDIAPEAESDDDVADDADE
Kind of experiment: Fluoroquinolone-inhibited DNA supercoiling assay, GyrA Ser83Phe-Asp87Asn DNA gyrase. The experiment is classed as biochemical. The conditions noted are these: for IC50 against double-mutant DNA gyrase relative to WT: ratio IC50 double mutant / WT; for IC50: supercoiling assay, GyrA double mutant Ser83Phe-Asp87Asn, read-out: IC50s ± SD, Ser83Phe-Asp87Asn (converted). An excerpt:
Recombinant DNA gyrase was obtained as separate subunits, GyrA and GyrB. In total, plasmids encoding nine subunits including WT GyrA and GyrB as well as seven GyrA with amino acid substitutions (Ser83Phe, Ser83Ile, Ser83Tyr, Asp87Gly, Asp87Asn, Asp87Tyr, and […]) in the quinolone resistance determining region were constructed as described in our previous study ([38]). These plasmids were introduced into Escherichia coli BL21(DE3) (Merck KGaA, Darmstadt, Germany), and protein expression was induced in the bacterial cells. A transformed E. coli was inoculated into Luria-Bertani broth supplemented with ampicillin (50 mg/L) and incubated at 37°C until the optical density value reached 0.60. Expression of GyrA and GyrB was induced by adding 1 mM isopropyl beta-D-1-thiogalactopyranoside (Wako Pure Chemical Industries Ltd, Osaka, Japan) followed by incubation at 16°C for 40 h (for GyrA), or 18°C for 13 h (for GyrB). To release the expressed protein, E. coli cells were harvested by centrifugation, suspended in a native binding buffer containing complete mini EDTA-free (Roche Applied Science, Mannheim, Germany), and then sonicated at a 30% duty cycle with 10 cycles of 40 s on and 40 s off (Sonifier 250; Branson, Danbury, CT). The recombinant DNA gyrase subunits were purified by column chromatography using Ni-NTA agarose resin (Thermo Fisher Scientific, Inc., Waltham, MA) and dialyzed against DNA gyrase dilution buffer [50 mM Tris-HCl, pH 7.5; 100 mM KCl, 2 mM dithiothreitol (DTT), 1 mM EDTA]. The obtained protein was mixed with glycerol to prevent denaturation and stored in small aliquots at −80°C for future use. The protein purity was assessed by sodium dodecyl sulfate-polyacrylamide gel electrophoresis (SDS-PAGE) (ATTO, Tokyo, Japan) as shown in Fig. 7.
The reaction mixture was incubated at 37°C for 60 min and then the reaction was halted by adding 8 µL of stop solution (5% SDS, 25% glycerol, and 0.25 mg/mL of bromophenol blue) ([45]). Next, 10 µL of each reaction mixture was subjected to gel electrophoresis for 80 min at 50 mA in 1.2% agarose gel in 1×Tris-acetate-EDTA (TAE) buffer. Subsequently, the gel was stained with 0.5 µg/mL of ethidium bromide for 30 min. The presence of supercoiled DNA can be easily distinguished as a separated band under the UV light. The amount of supercoiled DNA was quantified by its intensity using ImageJ, the digital image processing software (https://imagej.nih.gov/ij/download.html).

For experiment [10], the target named is T7, WT S. Typhimurium DNA gyrase. Kind of experiment: Fluoroquinolone-mediated DNA cleavage assay, WT DNA gyrase. The experiment is classed as biochemical.
Text: as §1, with “CT).” for “CT). The recombinant DNA gyrase subunits were purified by column chromatography using Ni-NTA agarose resin (Thermo Fisher Scientific, Inc., Waltham, MA) and dialyzed against DNA gyrase dilution buffer [50 mM Tris-HCl, pH 7.5; 100 mM KCl, 2 mM dithiothreitol (DTT), 1 mM EDTA].”, “7. […]” for “7.”

Experiment [11] has as its target T9, GryA-Ser83Ile S. Typhimurium DNA gyrase (Salmonella typhimurium, UniProt P0A2I3+P37411, S83I).
T9 construct: made in house; host or cells: Escherichia coli BL21(DE3)
Kind of experiment: Fluoroquinolone-mediated DNA cleavage assay, GyrA Ser83Ile DNA gyrase. The experiment is classed as biochemical.
Text: as §1, with “CT).” for “CT). The recombinant DNA gyrase subunits were purified by column chromatography using Ni-NTA agarose resin (Thermo Fisher Scientific, Inc., Waltham, MA) and dialyzed against DNA gyrase dilution buffer [50 mM Tris-HCl, pH 7.5; 100 mM KCl, 2 mM dithiothreitol (DTT), 1 mM EDTA].”, “7. […]” for “7.”

This is an account of results in article PMC10715191, “Exploration of the novel fluoroquinolones with high inhibitory effect against quinolone-resistant DNA gyrase of Salmonella Typhimurium” (Microbiology Spectrum, 2023).

Values after ≈ are worked out from the molar mass of the structure shown.

T1 sequence (P37411 whole entry S83F, one chain of several): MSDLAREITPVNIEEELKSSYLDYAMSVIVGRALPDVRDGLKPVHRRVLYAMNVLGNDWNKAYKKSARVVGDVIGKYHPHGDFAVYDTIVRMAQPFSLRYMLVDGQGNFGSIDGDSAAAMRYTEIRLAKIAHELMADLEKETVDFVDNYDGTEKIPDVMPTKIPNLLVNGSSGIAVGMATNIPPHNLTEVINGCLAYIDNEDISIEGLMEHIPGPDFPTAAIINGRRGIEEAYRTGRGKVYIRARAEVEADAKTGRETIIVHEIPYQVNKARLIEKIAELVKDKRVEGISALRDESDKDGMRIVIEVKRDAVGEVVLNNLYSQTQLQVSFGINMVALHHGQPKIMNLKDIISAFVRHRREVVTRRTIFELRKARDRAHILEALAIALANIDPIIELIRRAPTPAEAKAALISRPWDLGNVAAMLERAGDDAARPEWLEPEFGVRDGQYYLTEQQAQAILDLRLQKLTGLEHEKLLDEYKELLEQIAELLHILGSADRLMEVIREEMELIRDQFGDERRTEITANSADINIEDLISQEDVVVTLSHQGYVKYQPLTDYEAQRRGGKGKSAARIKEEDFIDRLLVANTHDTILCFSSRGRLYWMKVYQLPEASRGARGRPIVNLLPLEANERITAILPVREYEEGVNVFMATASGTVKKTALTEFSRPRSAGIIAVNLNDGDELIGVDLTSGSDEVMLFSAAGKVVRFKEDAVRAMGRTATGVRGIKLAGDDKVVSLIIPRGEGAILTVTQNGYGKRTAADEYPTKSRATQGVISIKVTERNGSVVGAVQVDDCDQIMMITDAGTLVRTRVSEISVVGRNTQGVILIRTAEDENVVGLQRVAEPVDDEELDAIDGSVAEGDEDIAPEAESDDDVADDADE
T7 sequence (P37411 whole entry, one chain of several): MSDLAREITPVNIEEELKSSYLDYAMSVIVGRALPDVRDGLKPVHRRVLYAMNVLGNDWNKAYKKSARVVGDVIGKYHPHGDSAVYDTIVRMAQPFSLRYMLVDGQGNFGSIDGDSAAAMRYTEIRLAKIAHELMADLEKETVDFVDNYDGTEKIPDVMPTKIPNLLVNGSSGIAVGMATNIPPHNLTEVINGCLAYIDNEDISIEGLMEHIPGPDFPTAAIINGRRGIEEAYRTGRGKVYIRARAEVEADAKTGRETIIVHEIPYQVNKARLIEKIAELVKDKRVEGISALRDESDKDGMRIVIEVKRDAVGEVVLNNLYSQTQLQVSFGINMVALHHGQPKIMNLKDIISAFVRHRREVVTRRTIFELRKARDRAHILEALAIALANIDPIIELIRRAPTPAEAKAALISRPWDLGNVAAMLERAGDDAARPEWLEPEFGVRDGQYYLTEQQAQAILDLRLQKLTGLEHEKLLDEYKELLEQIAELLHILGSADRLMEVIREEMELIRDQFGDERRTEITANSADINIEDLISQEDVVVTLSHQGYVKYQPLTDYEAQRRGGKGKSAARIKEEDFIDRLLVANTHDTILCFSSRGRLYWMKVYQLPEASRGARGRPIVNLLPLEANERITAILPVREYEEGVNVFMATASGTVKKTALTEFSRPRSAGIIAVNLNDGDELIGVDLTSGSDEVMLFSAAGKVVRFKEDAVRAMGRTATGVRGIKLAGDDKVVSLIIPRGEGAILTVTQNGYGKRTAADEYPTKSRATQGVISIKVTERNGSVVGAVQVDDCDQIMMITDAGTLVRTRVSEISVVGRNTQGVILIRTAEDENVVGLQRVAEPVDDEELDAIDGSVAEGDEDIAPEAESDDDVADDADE

Consider `Cc1c(N2CC(NC(C)C)C2)c(F)cc2c(=O)c(C(=O)O)cn(-c3nc(N)c(F)cc3F)c12` [WQ-3810], for which the IC50 was 113 nM in experiment [1]; 1290 nM in [2]; 71.5 nM in experiment [3]; 897 nM in experiment [5]; 2510 nM in experiment [6]; 69.3 nM in [7]. The IC50 is 71.5 nM in experiment [8] and 7910 nM in experiment [9]. The MIC (with S. Enteritidis NBRC 3313; in [4]) was 0.04 µg/mL (≈ 0.0867 µM) in each case. In the experiment with S. Enteritidis NBRC 3313, the “MIC ± SD, S. Enteritidis” value amounted to 0.04 µg/mL (≈ 0.0867 µM). For the same compound, the “MIC ± SD, S. Typhimurium” value in experiment [4] is 0.04 µg/mL (≈ 0.0867 µM). Moreover, the “IC50 against double-mutant DNA gyrase relative to WT” value in experiment [9] is listed as 110 fold.
For `Nc1nc(-n2cc(C(=O)O)c(=O)c3cc(F)c(N4CC(O)C4)c(Cl)c32)c(F)cc1F` [WQ-3034], the IC50 is 59 nM in experiment [1]; 1020 nM in experiment [2]; 68.1 nM in experiment [3]; 495 nM in experiment [5]; 1910 nM in experiment [6]; 54.5 nM in experiment [7]. In addition, the IC50 in [8] is 45.4 nM; in experiment [9], 2680 nM. The “CC25s, WT (concentration that induces 25% of maximum DNA cleavage)” value in experiment [10] amounted to 0.16 µg/mL. Moreover, the MIC with S. Enteritidis NBRC 3313 worked out at 0.016 µg/mL (≈ 0.0363 µM); in experiment [4] it was 0.08 µg/mL (≈ 0.182 µM). Moreover, the “MIC ± SD, S. Enteritidis” value against S. Enteritidis NBRC 3313 amounted to 0.16 µg/mL (≈ 0.363 µM). Moreover, the “MIC ± SD, S. Typhimurium” value in experiment [4] was found to be 0.08 µg/mL (≈ 0.182 µM). The “CC25s, Ser83Ile (concentration that induces 25% of maximum DNA cleavage)” value in experiment [11] stood at 0.58 µg/mL. Besides, the “IC50 against double-mutant DNA gyrase relative to WT” value in experiment [9] was 59 fold.
Regarding `Cc1c(N2CC(O)C2)c(F)cc2c(=O)c(C(=O)O)cn(-c3nc(N)c(F)cc3F)c12` [WQ-3154], the IC50 in [1] was 71.4 nM; in experiment [2], 2080 nM; in [3], 80.9 nM; in experiment [5], 592 nM; in experiment [6] it was 2750 nM; in [7], 83.3 nM. In addition, the IC50 in experiment [8] was 61.9 nM; in [9], 4310 nM. Moreover, the MIC (with S. Enteritidis NBRC 3313; in experiment [4]) was 0.08 µg/mL (≈ 0.19 µM) in each case. Besides, the “MIC ± SD, S. Enteritidis” value in the experiment with S. Enteritidis NBRC 3313 stood at 0.08 µg/mL (≈ 0.19 µM). In addition, the “MIC ± SD, S. Typhimurium” value in experiment [4] was 0.08 µg/mL (≈ 0.19 µM). For the same compound, the “IC50 against double-mutant DNA gyrase relative to WT” value in experiment [9] was 70 fold.
